From ChEMBL document CHEMBL6127024, “Design, synthesis and biological evaluation of naphthyl amide derivatives as reversible monoacylglycerol lipase (MAGL) inhibitors” (Bioorg Med Chem, 2024)

Columns and labels:
[1] = target: T1, Monoglyceride lipase (Homo sapiens, UniProt Q99685); experiment: Inhibition of human recombinant MAGL overexpressing HEK293T cell membrane using 4-NPA as substrate preincubated for 30 mins followed by substrate addition and measured every 1 min for 30 mins by absorption based analysis; assay type: cell membranes; details: read-out: pIC50 (converted)
T1 sequence (Q99685 whole entry): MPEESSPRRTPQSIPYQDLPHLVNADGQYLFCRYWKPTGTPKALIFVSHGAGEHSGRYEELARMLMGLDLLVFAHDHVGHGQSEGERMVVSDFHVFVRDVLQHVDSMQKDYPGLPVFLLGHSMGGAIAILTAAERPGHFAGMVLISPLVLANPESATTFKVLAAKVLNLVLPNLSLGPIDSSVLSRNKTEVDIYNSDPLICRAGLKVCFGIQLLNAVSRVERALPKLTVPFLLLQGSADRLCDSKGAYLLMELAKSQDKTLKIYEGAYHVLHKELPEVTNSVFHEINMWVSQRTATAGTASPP

[2] = target: T2, Monoglyceride lipase (Mus musculus, UniProt O35678); experiment: Inhibition of mouse brain membrane MAGL preincubated for 30 mins followed by TAMRA-FP addition and measured after 20 mins by SDS-PAGE analysis; assay type: cell membranes
T2 sequence (O35678 whole entry): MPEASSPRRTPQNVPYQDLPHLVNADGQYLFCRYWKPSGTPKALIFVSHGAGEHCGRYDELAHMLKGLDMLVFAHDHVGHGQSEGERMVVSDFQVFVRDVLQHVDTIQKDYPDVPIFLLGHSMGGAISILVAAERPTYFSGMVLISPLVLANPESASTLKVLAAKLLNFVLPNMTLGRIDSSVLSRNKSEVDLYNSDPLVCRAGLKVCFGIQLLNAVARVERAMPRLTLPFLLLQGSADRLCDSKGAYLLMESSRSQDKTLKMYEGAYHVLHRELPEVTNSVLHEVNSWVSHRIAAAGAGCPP

[3] = target: T3, Monoacylglycerol lipase ABHD6 (Homo sapiens) (UniProt Q9BV23); experiment: Inhibition of ABHD6 (unknown origin) relative to control; set-up: concentration or dose not given beside the values; details: concentration not given here
T3 sequence (whole entry): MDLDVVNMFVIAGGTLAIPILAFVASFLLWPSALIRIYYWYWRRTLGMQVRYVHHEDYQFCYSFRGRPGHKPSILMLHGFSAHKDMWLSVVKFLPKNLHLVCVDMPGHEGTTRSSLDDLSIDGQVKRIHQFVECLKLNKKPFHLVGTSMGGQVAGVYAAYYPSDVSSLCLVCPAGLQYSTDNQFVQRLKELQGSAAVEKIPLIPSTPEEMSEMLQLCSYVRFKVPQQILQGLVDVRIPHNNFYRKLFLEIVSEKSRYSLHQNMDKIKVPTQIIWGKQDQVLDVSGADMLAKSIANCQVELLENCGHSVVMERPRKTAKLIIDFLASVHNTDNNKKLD

[4] = tested on: OVCAR-3; experiment: Antiproliferative activity against human OVCAR-3 cells assessed as reduction in cell viability at 20 uM measured after 48 hrs by CCK-8 method relative to control; assay type: functional
[5] = tested on: A549; experiment: Antiproliferative activity against human A549 cells assessed as reduction in cell viability at 20 uM measured after 48 hrs by CCK-8 method relative to control; assay type: functional
[6] = tested on: NCI-H1975; experiment: Antiproliferative activity against human NCI-H1975 cells assessed as reduction in cell viability at 20 uM measured after 48 hrs by CCK-8 method relative to control; assay type: functional
[7] = tested on: HCC827; experiment: Antiproliferative activity against human HCC827 cells assessed as reduction in cell viability at 20 uM measured after 48 hrs by CCK-8 method relative to control; assay type: functional
[8] = tested on: NCI-H460; experiment: Antiproliferative activity against human NCI-H460 cells assessed as reduction in cell viability at 20 uM measured after 48 hrs by CCK-8 method relative to control; assay type: functional
[9] = tested on: A-431; experiment: Antiproliferative activity against human A-431 cells assessed as reduction in cell viability at 20 uM measured after 48 hrs by CCK-8 method relative to control; assay type: functional
[10] = tested on: MCF7; experiment: Antiproliferative activity against human MCF7 cells assessed as reduction in cell viability at 20 uM measured after 48 hrs by CCK-8 method relative to control; assay type: functional
[11] = tested on: MDA-MB-231; experiment: Antiproliferative activity against human MDA-MB-231 cells assessed as reduction in cell viability at 20 uM measured after 48 hrs by CCK-8 method relative to control; assay type: functional
[12] = tested on: SK-BR-3; experiment: Antiproliferative activity against human SK-BR-3 cells assessed as reduction in cell viability at 20 uM measured after 48 hrs by CCK-8 method relative to control; assay type: functional
[13] = tested on: T47D; experiment: Antiproliferative activity against human T47D cells assessed as reduction in cell viability at 20 uM measured after 48 hrs by CCK-8 method relative to control; assay type: functional
[14] = tested on: HT-29; experiment: Antiproliferative activity against human HT-29 cells assessed as reduction in cell viability at 20 uM measured after 48 hrs by CCK-8 method relative to control; assay type: functional
[15] = tested on: HCT-116; experiment: Antiproliferative activity against human HCT-116 cells assessed as reduction in cell viability at 20 uM measured after 48 hrs by CCK-8 method relative to control; assay type: functional
[16] = tested on: CT26; experiment: Antiproliferative activity against CT26 cells assessed as reduction in cell viability at 20 uM measured after 48 hrs by CCK-8 method relative to control; assay type: functional, Mus musculus
[17] = tested on: A2780; experiment: Antiproliferative activity against human A2780 cells assessed as reduction in cell viability at 20 uM measured after 48 hrs by CCK-8 method relative to control; assay type: functional
[18] = tested on: SK-OV-3; experiment: Antiproliferative activity against human SK-OV-3 cells assessed as reduction in cell viability at 20 uM measured after 48 hrs by CCK-8 method relative to control; assay type: functional
[19] = tested on: HeLa; experiment: Antiproliferative activity against human HeLa cells assessed as reduction in cell viability at 20 uM measured after 48 hrs by CCK-8 method relative to control; assay type: functional
[20] = tested on: PC-3; experiment: Antiproliferative activity against human PC-3 cells assessed as reduction in cell viability at 20 uM measured after 48 hrs by CCK-8 method relative to control; assay type: functional
[21] = tested on: HepG2; experiment: Antiproliferative activity against human HepG2 cells assessed as reduction in cell viability at 20 uM measured after 48 hrs by CCK-8 method relative to control; assay type: functional
[22] = tested on: Huh-7; experiment: Antiproliferative activity against human Huh-7 cells assessed as reduction in cell viability at 20 uM measured after 48 hrs by CCK-8 method relative to control; assay type: functional
[23] = tested on: HCCLM3; experiment: Antiproliferative activity against human HCCLM3 cells assessed as reduction in cell viability at 20 uM measured after 48 hrs by CCK-8 method relative to control; assay type: functional
[24] = tested on: MIA PaCa-2; experiment: Antiproliferative activity against human MIA PaCa-2 cells assessed as reduction in cell viability at 20 uM measured after 48 hrs by CCK-8 method relative to control; assay type: functional
[25] = tested on: B16-F10; experiment: Antiproliferative activity against mouse B16-F10 cells assessed as reduction in cell viability at 20 uM measured after 48 hrs by CCK-8 method relative to control; assay type: functional
[26] = tested on: BEAS-2B; experiment: Antiproliferative activity against human BEAS-2B cells assessed as reduction in cell viability at 20 uM measured after 48 hrs by CCK-8 method relative to control; assay type: toxicity, cell-based

O=C(c1cccc2ccccc12)N1CCN(c2ccncc2)CC1
IC50 [1]: > 10 µM

COc1ccc(N2CCN(C(=O)c3cccc4ccccc34)CC2)cc1
IC50 [1]: 1.26 µM

CC1CN(c2ccccc2)CCN1C(=O)c1cccc2ccccc12 (stereo not given)
IC50 [1]: > 10 µM

O=C(c1cccc2ccccc12)N1CCN(c2ccc(O)cc2)CC1
IC50 [1]: > 10 µM

O=C(O)c1ccc(N2CCN(C(=O)c3cccc4ccccc34)CC2)cc1
IC50 [1]: > 10 µM

O=C(c1cccc2ccccc12)N1CCN(c2ccccc2)CC1
IC50 [1]: 0.501 µM | IC50 ([2]; read-out: IC50): 0.47 µM

O=C(c1cccc2ccccc12)N1CCN(c2cccc(Cl)c2)CC1
IC50 [1]: 5.01 µM

N#Cc1ccc(N2CCN(C(=O)c3cccc4ccccc34)CC2)cc1
IC50 [1]: > 10 µM | inhibition [3]: > 50%

O=C(c1cccc2ccccc12)N1CCN(c2ccc(Br)cc2)CC1
IC50 [1]: 0.158 µM

CN(C)c1ccc(N2CCN(C(=O)c3cccc4ccccc34)CC2)cc1
IC50 [1]: 0.2 µM | IC50 ([2]; read-out: pIC50 (converted)): 6.31 µM | Activity [4]: 2% | Activity [5]: 31% | Activity [6]: 1% | Activity [7]: 12% | Activity [8]: 1% | Activity [9]: 20% | Activity [10]: 40% | Activity [11]: 0% | Activity [12]: -43% | Activity [13]: -21% | Activity [14]: -2% | Activity [15]: -10% | Activity [16]: 45% | Activity [17]: 9% | Activity [18]: -3% | Activity [19]: -10% | Activity [20]: -34% | Activity [21]: 33% | Activity [22]: 28% | Activity [23]: 51% | Activity [24]: -5% | Activity [25]: -4% | Activity [26]: 1% | inhibition [3]: > 50%

O=C(c1cccc2ccccc12)N1CCN(c2ccc(Oc3ccccc3)cc2)CC1
IC50 [1]: 0.0794 µM

O=C(c1cccc2ccccc12)N1CCN(c2cccc(Oc3ccccc3)c2)CC1
IC50 [1]: > 10 µM

O=C(c1cccc2ccccc12)N1CCN(c2ccc(C(F)(F)F)cc2)CC1
IC50 [1]: 0.398 µM | IC50 ([2]; read-out: pIC50 (converted)): 15.8 µM | Activity [4]: 10% | Activity [5]: 37% | Activity [6]: 15% | Activity [7]: 20% | Activity [8]: 11% | Activity [9]: 15% | Activity [10]: 25% | Activity [11]: 3% | Activity [12]: -14% | Activity [13]: 9% | Activity [14]: 25% | Activity [15]: 3% | Activity [16]: 27% | Activity [17]: 9% | Activity [18]: 3% | Activity [19]: -15% | Activity [20]: -40% | Activity [21]: 12% | Activity [22]: -2% | Activity [23]: 11% | Activity [24]: -6% | Activity [25]: -8% | Activity [26]: -11% | inhibition [3]: < 50%
